Legend:
[1] = tested on: pulmonary hypertension induced by injection of monocrotaline in rats; assay: Survival of rats with monocrotaline-induced pulmonary hypertension; type: in vivo, Male Sprague-Dawley rats
Protocol: Male Sprague-Dawley rats weighing about 300 g received a subcutaneous injection of monocrotaline (MCT) at a dose of 80 mg/kg.
The treatment with irbesartan was started either 21 days or 14 days after injection of monocrotaline. Irbesartan was incorporated into the food in powder form. The control animals received food alone.
Throughout the study, the animals were examined daily.
In a first study, irbesartan was administered alone at a dose of 50 mg/kg. In a second study, irbesartan was administered alone at a dose of 30 mg/kg and in combination with hydrochlorothiazide (HCTZ): irbesartan: 30 mg/kg and HCTZ: 10 mg/kg.

[2] = tested on: pulmonary hypertension induced with monocrotaline; conditions: reported by L. Cassis et al. and R. Kreutz et al.; cited from earlier work
[3] = Study 2, treatment started on the 14th day post-MCT, irbesartan 30 mg/kg, HCTZ 10 mg/kg, alone or in combination
[4] = Study 1, irbesartan 50 mg/kg in food, treatment started on the 14th day after MCT 80 mg/kg s.c.
[5] = Study 1, irbesartan 50 mg/kg in food, treatment started on the 21st day after MCT 80 mg/kg s.c.

SMILES | Survival to the 50th day [1, 3] | Survival to the end of the study (85th day) [1, 3] | Survival time of the MCT-treated rats ([1]; 50 mg/kg/day, either from the 21st day or from the 14th day post-MCT) | Survival to the 25th day [1, 4] | Survival to the 50th day [1, 4] | Survival to the end of the study (100th day) [1, 4] | Survival to the end of the study (100th day) ([1]; Study 1, irbesartan 50 mg/kg in food, treatment started on the 14th day after MCT 80 mg/kg s.c., listed as irbesartan) | Survival to the 25th day [1, 5] | Survival to the 50th day [1, 5] | Survival to the end of the study (57th day) [1, 5] | Survival to the end of the study (57th day) ([1]; Study 1, irbesartan 50 mg/kg in food, treatment started on the 21st day after MCT 80 mg/kg s.c., listed as irbesartan) | Overall survival time estimated ([1]; Study 1, irbesartan 50 mg/kg, treatment started on the 14th day post-MCT, control group 46 days) | Median estimated survival time ([1]; Study 2, treatment started on the 14th day post-MCT, irbesartan 30 mg/kg alone or with HCTZ 10 mg/kg) | Effect in the monocrotaline pulmonary hypertension model [2]
NS(=O)(=O)c1cc2c(cc1Cl)NCNS2(=O)=O [HCTZ, hydrochlorothiazide] | 25% | 4.2% | – | – | – | – | – | – | – | – | – | – | – | –
CCCCC1=NC2(CCCC2)C(=O)N1Cc1ccc(-c2ccccc2-c2nnn[nH]2)cc1 [Irbesartan] | 47.8% | 0% | significantly increased the survival time | 100% (12/12) | 83% (10/12) | 50% (6/12) | 50% | 100% (18/18) | 72% (13/18) | 61% (11/18) | 61% | > 93 days | 46 days | –
CCCCc1nc(Cl)c(CO)n1Cc1ccc(-c2ccccc2-c2nn[nH]n2)cc1 [losartan] | – | – | – | – | – | – | – | – | – | – | – | – | – | no effect
